Test results: patent US20210161842A1, “ABSCISIC ACID FOR THE TREATMENT OF SKIN DISEASES” (priority 2018, published 2021)

Columns and labels:
[1] = tested on: Candida albicans DSM 3454; assay: C. albicans biofilm on glass coupons (and planktonic growth in suspension); type: cell-based; conditions: ABA 60 μg/ml; inoc. day 184000, control 460000
Experimental: (§1) Generation of representative biofilms on borosilicate glass coupons (12.7 mm diameter and a thickness of 3.7 mm) by immersion of the coupons in a suspension of each microorganism with culture medium and the compounds of interest was tested. Evaluation of the antibiofilm properties and study of adhesion, growth and viability of biofilms on the coupons was analyzed by fluorescence staining technique and visualization of live/dead microbial was done by Laser Scanning Confocal Microscopy. The sampling and analysis of coupons to determine biofilm population density was recorded as colony-forming units (cfu) per coupon. In parallel, planktonic cells quantification in suspension was also determined.
(§2) For the determination of biofilm populations the microbial population adhered to the coupon surface were quantified by dilution and plating after biofilm disaggregation process by sonication and vortex cycles. The planktonic cells (suspension) were determined by dilution and plating. The controls were, respectively the cells on coupons or in suspension after 5 days without any treatment.
(§3) Following procedure as disclosed in Example 3, particular compositions comprising ABA ((+)-(S)-cis,trans-abscisic acid) and cell lysate of a plant cell culture of Morinda citrifolia were also tested in an assay on glass coupons that also served as example of biofilm formation on abiotic surfaces. […]

[2] = tested on: lesional skin biopsies from psoriasis patients; assay: Inflammatory marker mRNA in full-thickness lesional skin biopsies of psoriasis patients (ex vivo, RT-PCR); type: cell-based, human; conditions: patient with psoriatic plaque; 8 days at 37° C.; ABA 2 μL/ml; dexamethasone as control
Experimental: (§4) In skin biopsies of patients with plaque psoriasis and from patients with atopic dermatitis, it was determined the expression of several inflammatory markers (Interleukin 23A (IL-23A), C-X-C motif chemokine 10 (CXCL10), Interleukin 8 (IL-8), Interleukin 20 (IL-20), Intercellular Adhesion Molecule 1 (ICAM-1), LNC2, DEF-4, Keratin 16 (K-16), Interferon gamma (IFNg) and Interleukin 17A (IL-17A) using commercially available PCR tools for their determinations (RT-PCR by RNeasy Fibrous Tissue Mini kit and cDNA Archive kit, Sigma, ABlprism 7900HT and TaqMan probes). As a control, dexamethasone was used.
(§5) Full-thickness lesional skin biopsies from untreated atopic dermatitis and psoriasis patients were incubated in KBM medium supplemented with Ca2Cl for 8 days at 37° C., conditions that preserve human skin lesional in vitro. The different culture conditions were media, ABA (2 μL/ml (+)-(S)-cis,trans-abscisic acid). Medium was changed every 2-3 days. After incubation biopsies were cryopreserved in OCT at −80 until total mRNA was extracted with miRNeasy kit (Qiagen) according to manufacturer's protocol. RNA quality and quantity were checked using Nanodrop. RNA was conserved in RNase free water at −80° C. until analysis. RNA was converted to cDNA using the HighCapacity cDNA Reverse Transcription Kits (Applied Biosystems). Quantitative PCR was performed using TaqMan PreAmp Master Mix Kit (Applied Bioscience) and the TaqMan Gene Expression Master Mix (Applied Bioscience) following the manufacturers' protocols. Gene expression was normalized to the house-keeping gene Glyceraldehyde 3-phosphate dehydrogenase (GADPH) and normalized for each condition as 1,8e (Ct GADPH-Ct target gene) ×10000. […]
This cell culture lysate was a callus cell lysate and it was used at a final concentration of 20 μg/ml of media (KBM medium supplemented with Ca2Cl as in the assay with ABA alone). As positive or comparative control, dexamethasone (1 μM in the culture) was used.
(§6) Patients from which biopsies were obtained included 5 psoriatic cases and 3 atopic dermatitis cases.

[3] = tested on: lesional skin biopsies from atopic dermatitis patients; assay: Inflammatory marker mRNA in full-thickness lesional skin biopsies of atopic dermatitis patients (ex vivo, RT-PCR); type: cell-based, human; conditions: patient with atopic dermatitis plaque; 8 days at 37° C.; ABA 2 μL/ml; dexamethasone as control
Experimental: as §4, §5, §6

[4] = tested on: Propionibacterium acnes DSM 1897; assay: cfu in P. acnes culture 24 hours after inoculum (bacteriostatic/bactericide effect); type: cell-based; conditions: inoc. day 320000, control 1490000
Experimental: (§7) In this example several concentrations of ABA ((+)-(S)-cis,trans-abscisic acid (synonym of (S)-5-(1-hydroxy-2,6,6-trimethyl-4-oxo-2-cyclohexen-1-yl)-3-methyl-(2Z,4E)-pentadienoic acid)) (60 μg/ml, 30 μg/ml, 15 μg/ml, 5 μg/ml) were tested in a culture of P. acnes. Different amounts of the Morinda citrifolia cell lysate disclosed in Example 6 below were also tested in the same conditions (60%, 30%, 10%, 1%, 0.5%) by weight of cell lysate in the P. acnes culture. […] The same protocol was followed with a culture of S. aureus and with a culture of M. furfur. Data are shown in next Tables 1.1 to 1.6, where bacteriostatic and bactericide concentrations are listed. Underlined concentrations are the considered bacteriostatic or fungistatic amounts and that they avoid biofilm formation.
(§8) S. aureus, P. aeruginosa, P. acnes, and M. furfur subcultures were carried out from the stock by streaking onto determined medium and incubated according to the conditions specified for each of the microorganisms according to standard procedures and as indicated below:
(§9) Further it was tested a composition comprising 30% of Morinda citrifolia cell lysate and 30×10^−4% of abscisic acid ((+)-(S)-cis,trans-abscisic acid), glycerine and preservatives (q.s. 100%) in cultures of P. acnes, S. aureus, P. aeruginosa and M. furfur. The composition was used in the microbial culture at 5% and at 10% of the culture. […]

[5] = tested on: Epidermophytum floccosum DSM 10709; assay: E. floccosum biofilm on glass coupons (and planktonic growth in suspension); type: cell-based; conditions: ABA 60 μg/ml; inoc. day 96667, control 374333
Experimental: as §1, §2, §3

[6] = tested on: Malassezia furfur ATCC 14521; assay: cfu in M. furfur culture 24 hours after inoculum (fungistatic/fungicide effect); type: cell-based; conditions: inoc. day 420000, control 1470000
Experimental: as §7, §8, §9

[7] = tested on: Staphylococcus aureus ATCC 6538; assay: cfu in S. aureus culture 24 hours after inoculum (bacteriostatic/bactericide effect); type: cell-based; conditions: ABA 60 μg/ml, inoc. day 520000, control 3310000
Experimental: as §7, §8, §9

[8] = tested on: Streptococcus mutans DSM 20523; assay: cfu in S. mutans culture (bacteriostatic/bactericide effect); type: cell-based; conditions: inoc. day 200000, control 109000 × 10
Experimental: (§10) Following the same scheme and procedure as in Examples 1-3 above, ABA 8((+)-(S)-cis,trans-abscisic acid)) and combinations of ABA with cell culture lysates or methyl jasmonate were tested on several microorganisms forming biofilms. As before, underlined concentrations are the considered bacteriostatic or fungistatic amounts and that they avoid biofilm formation.
(§11) Biofilm generation conditions and medium for the growth of the bacteria were those recommended by the supplier of each microorganism.

[9] = tested on: Epidermophytum floccosum DSM 10709; assay: cfu in E. floccosum culture (fungistatic effect); type: cell-based; conditions: ABA 60 μg/ml; inoc. day 136000, control 587500
Experimental: as §10, §11

[10] = tested on: Candida albicans DSM 3454; assay: cfu in C. albicans culture (fungistatic/fungicide effect); type: cell-based; conditions: ABA 60 μg/ml; inoc. day 264000, control 456500
Experimental: as §10, §11

[11] = tested on: interleukine-8 (IL-8) in THP-1; assay: IL-8 levels (ELISA) in THP-1 monocytes inflamed with IL-17 and LPS; type: cell-based, human; conditions: IL-17 3 ng/ml + LPS 10 μg/ml 6 hours, then 24 hours; lysate 200, 20, 1 and 0.1 μg/ml (all doses); dexamethasone 10 μM
Experimental: (§12) In human monocytes line THP-1 (derived from patients with acute monocytic leukemia) inflammation was induces with IL-17 (3 ng/ml of culture) and lipopolysaccharide (LPS; 10 μg/ml) for 6 hours. After that different doses of the C. longa callus lysate were added (200 μg/ml, 20 μg/ml, 1 μg/ml and 0.1 μg/ml) for 24 hours. The assay was performed in 96-well plates. Tumoral necrosis factor alpha (TNF-α) and interleukine-8 (IL-8) levels were quantified by ELISA (fluorimetry, BD OpEIA, USA). One control was an assay with only the inflammatory agents at the same concentration to induce inflammation. Another control was were dexamethasone (10 μM)+Il-17/LPS.

[12] = tested on: Tumoral necrosis factor alpha (TNF-α) in THP-1; assay: TNF-α levels (ELISA) in THP-1 monocytes inflamed with IL-17 and LPS; type: cell-based, human; conditions: IL-17 3 ng/ml + LPS 10 μg/ml 6 hours, then 24 hours; lysate 200, 20, 1 and 0.1 μg/ml (all doses); dexamethasone 10 μM
Experimental: as §12

[13] = tested on: Pseudomonas aeruginosa CECT 116; assay: cfu in P. aeruginosa culture (bacteriostatic/bactericide effect); type: cell-based; conditions: methyl jasmonate alone
Experimental: as §7
S. aureus, P. aeruginosa, P. acnes, and M. furfur subcultures were carried out from the stock by streaking onto determined medium and incubated according to the conditions specified for each of the microorganisms according to standard procedures and as indicated below: […]
Inventors also tested the effect of methyl jasmonate in P. acnes, S. aureus, M. furfur and P. aeruginosa. […] A bactericide effect was detected at 60% w/w.

Row | Compound | CXCL10 mRNA, % of inhibition vs Media (normalized) [2] | DEF-4 mRNA, % of inhibition vs Media (normalized) [2] | ICAM-1 mRNA, % of inhibition vs Media (normalized) [2] | IFNg mRNA, % of inhibition vs Media (normalized) [2] | IL-8 mRNA, % of inhibition vs Media (normalized) [2] | IL-17A mRNA, % of inhibition vs Media (normalized) [2] | IL-20 mRNA, % of inhibition vs Media (normalized) [2] | K-16 mRNA, % of inhibition vs Media (normalized) [2] | LNC2 mRNA, % of inhibition vs Media (normalized) [2] | CCL13 mRNA, % of inhibition vs Media (normalized) [3] | CCL17 mRNA, % of inhibition vs Media (normalized) [3] | CCL18 mRNA, % of inhibition vs Media (normalized) [3] | CCL26 mRNA, % of inhibition vs Media (normalized) [3] | FLG mRNA, % of inhibition vs Media (normalized) [3] | IFNg mRNA, % of inhibition vs Media (normalized) [3] | IL-13 mRNA, % of inhibition vs Media (normalized) [3] | K16 mRNA, % of inhibition vs Media (normalized) [3] | LOR mRNA, % of inhibition vs Media (normalized) [3] | further results
1 | (+)-(S)-cis,trans-abscisic acid [ABA] | 140.1% | −64.8% | −40.6% | −10.7% | −71.5% | 9.3% | −27.8% | 24.9% | −45.7% | −59.2% | −70.1% | −72.9% | −44.2% | 8.3% | 9.2% | −79.0% | −69.1% | −45.5% | CFU on coupons [1]: 360000 CFU; CFU ([4]; ABA 30 μg/ml): 158001 CFU; CFU ([4]; ABA 60(*) μg/ml, (*)concentration considered bactericide): 100000 CFU; CFU on coupons [5]: 243667 CFU; CFU ([6]; ABA 30 μg/ml): 529000 CFU; CFU ([6]; ABA 60(*) μg/ml, (*)considered fungicide): 256000 CFU; CFU [7]: 585000 CFU; CFU ([8]; ABA 50 μg/ml): 289500 CFU; CFU ([8]; ABA 60 μg/ml): 268000 CFU; CFU [9]: 287200 CFU; CFU [10]: 367500 CFU
2 | C[C@@H]1C[C@H]2[C@@H]3CCC4=CC(=O)C=C[C@]4(C)[C@@]3(F)[C@@H](O)C[C@]2(C)[C@@]1(O)C(=O)CO [dexamethasone, reference compound] | 8.7% | −15.7% | 17.1% | 72.7% | −70.1% | 116.9% | 5.5% | 27.8% | 96.3% | 28.4% | −81.4% | −9.1% | −34.0% | 270.4% | −100.0% | −100.0% | −39.8% | 189.2% | IL-8 levels in relation to inflamed cells [11]: −33%; TNF-α levels in relation to inflamed cells [12]: −56%
3 | CC/C=C\CC1C(=O)CCC1CC(=O)OC (centres unmarked) [methyl jasmonate] | – | – | – | – | – | – | – | – | – | – | – | – | – | – | – | – | – | – | percentage by weight in the culture media with bactericide effect [13]: 60 % w/w
